Source: the supplement of paper PMC10307832

Assays:
Test in all cases: relative viability (nuclei count vs DMSO), 5 days (fraction); higher = more cells survive
Etoposide + Foretinib = compound: COc1cc([C@@H]2c3cc4c(cc3[C@@H](O[C@@H]3O[C@@H]5CO[C@@H](C)O[C@H]5[C@H](O)[C@H]3O)[C@H]3COC(=O)[C@H]23)OCO4)cc(OC)c1O [Etoposide] + COc1cc2c(Oc3ccc(NC(=O)C4(C(=O)Nc5ccc(F)cc5)CC4)cc3F)ccnc2cc1OCCCN1CCOCC1 [Foretinib] (partner 0.25 µM)
Summary of the method: (§1)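 Lung cancer cell lines in 1536-well plates got either a single drug or a fixed anchor-drug dose together with five library-drug doses (not always all listed) in √10 steps, by pin tool, on the day after seeding. Nuclei were counted after 5 days, and relative viability is the treated-to-vehicle ratio of nuclei counts. Values are medians of duplicate plates.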

Etoposide + Crizotinib = compound: COc1cc([C@@H]2c3cc4c(cc3[C@@H](O[C@@H]3O[C@@H]5CO[C@@H](C)O[C@H]5[C@H](O)[C@H]3O)[C@H]3COC(=O)[C@H]23)OCO4)cc(OC)c1O [Etoposide] + C[C@@H](Oc1cc(-c2cnn(C3CCNCC3)c2)cnc1N)c1c(Cl)ccc(F)c1Cl [Crizotinib] (partner 1 µM)
Summary of the method: as §1

Bleomycin + Dasatinib = compound: CC1=C(N=C(N=C1N)[C@H](CC(=O)N)NC[C@@H](C(=O)N)N)C(=O)N[C@@H]([C@H](C2=CN=CN2)OC3C(C(C(C(O3)CO)O)O)OC4C(C(C(C(O4)CO)O)OC(=O)N)O)C(=O)N[C@H](C)[C@H]([C@H](C)C(=O)N[C@@H]([C@@H](C)O)C(=O)NCCC5=NC(=CS5)C6=NC(=CS6)C(=O)NCCC[S+](C)C)O [Bleomycin] + Cc1nc(Nc2ncc(C(=O)Nc3c(C)cccc3Cl)s2)cc(N2CCN(CCO)CC2)n1 [Dasatinib] (partner 0.075 µM); conditions: main component drawn
Summary of the method: as §1

Bleomycin + Alpelisib = compound: CC1=C(N=C(N=C1N)[C@H](CC(=O)N)NC[C@@H](C(=O)N)N)C(=O)N[C@@H]([C@H](C2=CN=CN2)OC3C(C(C(C(O3)CO)O)O)OC4C(C(C(C(O4)CO)O)OC(=O)N)O)C(=O)N[C@H](C)[C@H]([C@H](C)C(=O)N[C@@H]([C@@H](C)O)C(=O)NCCC5=NC(=CS5)C6=NC(=CS6)C(=O)NCCC[S+](C)C)O [Bleomycin] + Cc1nc(NC(=O)N2CCC[C@H]2C(N)=O)sc1-c1ccnc(C(C)(C)C(F)(F)F)c1 [Alpelisib] (partner 2 µM); conditions: main component drawn
Summary of the method: as §1

Cell Line	relative viability (Etoposide + Foretinib; first compound 0.01 µM)	relative viability (Etoposide + Foretinib; first compound 0.03162 µM)	relative viability (Etoposide + Foretinib; first compound 0.1 µM)	relative viability (Etoposide + Foretinib; first compound 0.3162 µM)	relative viability (Etoposide + Foretinib; first compound 1 µM)	relative viability (Etoposide + Crizotinib; first compound 0.01 µM)	relative viability (Etoposide + Crizotinib; first compound 0.03162 µM)	relative viability (Etoposide + Crizotinib; first compound 0.1 µM)	relative viability (Etoposide + Crizotinib; first compound 0.3162 µM)	relative viability (Etoposide + Crizotinib; first compound 1 µM)	relative viability (Bleomycin + Dasatinib; first compound 0.01 µM)	relative viability (Bleomycin + Dasatinib; first compound 0.03162 µM)	relative viability (Bleomycin + Dasatinib; first compound 0.1 µM)	relative viability (Bleomycin + Dasatinib; first compound 0.3162 µM)	relative viability (Bleomycin + Dasatinib; first compound 1 µM)	relative viability (Bleomycin + Alpelisib; first compound 0.01 µM)	relative viability (Bleomycin + Alpelisib; first compound 0.03162 µM)	relative viability (Bleomycin + Alpelisib; first compound 0.1 µM)	relative viability (Bleomycin + Alpelisib; first compound 0.3162 µM)	relative viability (Bleomycin + Alpelisib; first compound 1 µM)
LCLC-103H	0.592	0.597	0.77	0.636	0.502	1.09	1.02	0.984	1.06	0.988	0.382	0.448	0.418	0.316	0.214	0.92	0.967	1.05	0.934	0.4
LK-2	0.879	1.17	0.933	0.912	0.401	0.264	0.265	0.263	0.219	0.23	0.209	0.193	0.248	0.176	0.169	0.579	0.505	0.478	0.282	0.251
LOU-NH91	0.919	0.949	0.745	0.795	0.406	0.74	0.767	0.701	0.632	0.438	0.562	0.391	0.448	0.306	0.251	0.604	0.498	0.469	0.388	0.322
LU99A	0.911	0.966	0.43	0.466	0.287	0.577	0.512	0.388	0.288	0.189	0.366	0.505	0.367	0.205	0.125	0.345	0.332	0.239	0.137	0.118
LXF-289	0.973	0.971	1.02	0.611	0.327	0.851	0.824	0.836	0.511	0.251	0.19	0.228	0.197	0.077	0.0555	0.923	1.04	0.9	0.332	0.162
NCI-H23	0.924	0.941	0.678	0.4	0.242	0.365	0.471	0.402	0.297	0.169	0.535	0.552	0.321	0.148	0.167	0.327	0.298	0.192	0.127	0.122
NCI-H322M	0.813	1	0.831	0.864	0.483	0.775	0.889	0.905	0.871	0.533	0.241	0.26	0.262	0.243	0.263	0.738	0.84	0.81	0.859	0.559
NCI-H358	0.705	0.756	0.447	0.184	0.134	0.689	0.441	0.518	0.261	0.139	0.183	0.165	0.176	0.107	0.156	0.889	0.799	0.712	0.481	0.349
NCI-H441	0.923	0.838	0.673	0.363	0.286	0.597	0.603	0.39	0.197	0.133	0.424	0.709	0.515	0.296	0.311	–	0.699	0.645	0.444	0.279
NCI-H460	0.871	0.907	0.809	0.142	0.0668	0.708	0.498	0.476	0.0396	0.0142	0.362	0.318	0.244	0.0443	0.037	0.294	0.243	0.136	0.0356	0.017
NCI-H520	0.825	0.93	0.784	0.67	0.554	0.759	0.729	0.944	0.725	0.629	0.222	0.217	0.234	0.198	0.154	0.759	0.796	0.863	0.543	0.402
NCI-H596	0.748	0.833	1.04	0.799	0.596	1.02	0.96	–	0.808	0.681	0.548	0.531	0.395	0.24	0.221	0.377	0.686	0.395	0.259	0.269
NCI-H647	1.02	1.25	1.21	0.654	0.271	1.05	1.01	0.858	0.298	0.151	0.101	0.0923	0.0574	0.039	0.0343	0.575	0.448	0.337	0.109	0.0917
NCI-H650	0.961	0.913	0.682	0.606	0.288	0.568	0.831	0.416	0.339	0.174	0.389	0.438	0.432	0.289	0.212	0.948	1.03	0.827	0.456	0.312
NCI-H661	0.982	1.06	0.889	0.845	0.53	1.03	0.981	0.997	0.845	0.736	0.741	0.657	0.623	0.262	0.242	0.439	0.66	0.411	0.247	0.196
NCI-H727	0.988	0.912	–	0.732	0.606	0.771	0.683	0.867	0.766	0.585	0.466	0.345	0.325	–	0.293	0.499	0.529	0.491	0.293	0.308
NCI-H838	0.981	1.03	1.01	0.841	0.35	0.85	0.846	0.973	0.522	0.345	0.267	0.265	0.243	0.153	0.175	0.674	0.29	0.238	0.161	0.212
NCI-H1355	0.812	0.998	0.828	0.507	0.285	0.918	1.15	0.5	0.674	0.306	0.668	0.661	0.84	0.252	0.192	0.777	0.935	0.802	0.566	0.323
NCI-H1437	1.21	1.2	1.27	0.943	0.44	1.04	0.918	0.926	0.403	0.361	0.388	0.422	0.39	0.164	0.23	0.799	0.922	0.83	0.406	0.396
NCI-H1563	0.758	0.93	0.785	0.609	0.604	0.95	0.757	0.685	0.595	0.448	0.439	0.452	0.438	0.401	0.47	0.831	0.707	0.678	0.613	0.572
NCI-H1651	0.781	0.659	0.784	0.351	0.251	0.815	0.827	0.629	0.301	0.202	0.344	0.361	0.384	0.187	0.144	0.708	0.71	0.733	0.236	0.174
NCI-H1666	0.962	0.919	0.695	0.42	0.461	0.906	0.904	0.68	0.36	0.301	0.658	0.521	0.565	0.374	0.317	0.711	0.708	0.625	0.264	0.354
NCI-H1734	0.776	0.923	0.701	0.602	0.369	0.647	0.643	0.541	0.497	0.271	0.357	0.312	0.348	0.145	0.154	0.626	0.519	0.514	0.27	0.216
NCI-H1755	0.958	0.974	0.919	0.883	0.869	0.846	0.839	0.931	0.716	0.595	0.409	0.433	0.407	0.454	0.29	0.939	0.93	0.906	0.658	0.58
NCI-H1915	1.06	1.18	1.16	0.986	0.877	0.859	0.985	0.825	0.802	0.481	0.247	0.258	0.181	0.0914	0.0984	0.896	0.888	0.68	0.325	0.167
NCI-H1944	0.697	0.95	0.578	0.471	0.347	1.03	1.1	0.763	0.641	0.258	0.173	0.177	0.159	0.115	0.106	0.627	0.518	0.506	0.288	0.179
NCI-H1975	0.914	0.938	0.895	0.91	0.286	0.98	1.06	1.05	0.668	0.249	0.34	0.343	0.287	0.13	0.115	0.607	0.616	0.555	0.254	0.232
